{"source": "patent US20230130791A1", "about": "“A Combined Inhibition of EGFR and NRF2 in The Treatment of Malignant Glioma” (United States Government as represented by the Department …, priority 2020, published 2023)", "key": {"[1]": {"conditions": "Mouse, cited from earlier work; for T½: parent drug (SASP for Sulfazaline)"}, "[2]": {"conditions": "Human, cited from earlier work"}, "GBM12 cells [3]": {"test_system": "GBM12 cells", "test": "RNAseq transcriptome and pathway analysis after erlotinib", "assay_type": "cell-based, human", "from_the_text": "These q-values are corrected from p-values of the hypergeometric test, for multiple testing using the false discovery rate (FDR) method."}, "GBM 12 or GBM6 cells": {"test_system": "GBM 12 or GBM6 cells", "test": "ROS by MitoTracker Red CM-H2XRos", "assay_type": "cell-based, human", "conditions": "erlotinib 1 uM, 24 hours", "from_the_text": "Oxidative stress. Without wishing to be bound by theory, it is hypothesized that a sudden inhibition of EGFR signaling may increase oxidative stress and thus activate Nrf2. Previous studies have reported that EGFR inhibition leads to increased oxidative stress in lung and head and neck cancers (Orcutt, et al. (2011) Erlotinib-mediated inhibition of EGFR signaling induces metabolic oxidative stress through NOX4, Cancer Res 71, 3932-3940; Qian, et al. (2009) Clin Exp Pharmacol Physiol 36, 487-494). […] MitoTracker® Red CM-H2XRos (Fisher), a reduced nonfluorescent dye which is taken up passively by living cells, will be used. In the mitochondria, the dye is oxidized by superoxide, resulting in the emission of red fluorescence.\nMitoTracker® Red CM-H2XRos (Fisher) was added to culture media at a concentration of 100 nM and incubated at 37° C. in a humidified incubator containing 5% CO2 for 30 minutes, the cells were then fixed in ice-cold methanol for 15 min at −20° C. followed by fluorescence microscopy."}, "Keap1": {"test_system": "Keap1", "test": "Cellular level of total Keap1", "assay_type": "cell-based", "conditions": "data not shown"}, "Mayo PDX GBM12 cells": {"test_system": "Mayo PDX GBM12 cells", "test": "GSH/GSSG ratio by metabolite profiling (LC-MS/MS)", "assay_type": "cell-based, human", "conditions": "GBM12, 24 hour exposure, means±SD of four experiments", "text": "Determination of GSH levels will be undertaken at a Biochemistry Core Facility at UT Southwestern using metabolite profiling as previously described (Krall, et al. (2017) KEAP1 loss modulates sensitivity to kinase targeted therapy in lung cancer, Elife 6; Yuan, et al. (2012) Nat Protoc 7, 872-881). Samples will be analyzed by liquid chromatography tandem mass spectrometry (LC-MS/MS) using positive ion/negative ion polarity switching via selected reaction monitoring (SRM) on a 5500 QTRAP hybrid triple quadrupole mass spectrometer. Peaks will be integrated using MultiQuant 2.1 data analysis software (AB/SCIEX). The ratio of reduced intracellular glutathione to oxidized glutathione is a measure of oxidative stress.\nData are presented as means±SD of four experiments. […] GSH, reduced glutathione; GSSG, oxidized glutathione."}, "p21": {"test_system": "p21", "test": "p21 response to erlotinib (FIG. 12)", "assay_type": "cell-based", "conditions": "in response to erlotinib", "from_the_text": "p21. p21Cip1/WAF1 is a cyclin-dependent kinase inhibitor that regulates the cell cycle and acts as an antioxidant. The antioxidant function of p21 is mediated through stabilization of Nrf2. Thus, p21 is an interesting target for study."}, "[4]": {"test": "Toxicity in mice by gavage", "conditions": "50-100 mg/kg by gavage"}, "glioma cells": {"test_system": "glioma cells", "test": "Cell survival/viability assays in glioma cells (general statements)", "assay_type": "cell-based", "conditions": "for synergy with EGFR inhibition in cell survival assays: FIG. 5"}, "preclinical GBM models": {"test_system": "preclinical GBM models", "test": "Preliminary orthotopic GBM experiments (FIG. 6, general statements)", "assay_type": "in vivo"}, "[5]": {"conditions": "in vivo; cited from earlier work"}, "GBM12 cells [6]": {"test_system": "GBM12 cells", "test": "Alamarblue cell viability assay, GBM12", "assay_type": "cell-based, human", "conditions": "GBM12, 72 hours; ML385 1 μm, INH 1 μm, sulfasalazine 5 μm", "text": "ML385 (1 μm) and isoniazid (INH 1 μm) are Nrf2 inhibitors while Erastin and sulfasalazine (5 μm) are xCT inhibitors."}, "[7]": {"conditions": "parent drug (SASP for Sulfazaline)"}, "[8]": {"conditions": "parent drug (SASP for Sulfazaline), dose per Table 5"}, "[9]": {"conditions": "TNF inhibitor added to erlotinib"}}, "note": "Read-outs that look alike come from different tables or passages of the source.", "data": [{"compound": "CN(C)C/C=C/C(=O)Nc1cc2c(Nc3ccc(F)c(Cl)c3)ncnc2cc1O[C@H]1CCOC1", "note": "[Afatinib, afatinib]", "values": [{"measurement": "AUC", "setting": "[1]; 30 mg/kg QD", "result": "(2375 nM * hr"}, {"measurement": "Cmax", "setting": "[1]; 30 mg/kg QD", "result": 417, "unit": "nM"}, {"measurement": "T½", "setting": "[1]", "result": 5, "unit": "h"}, {"measurement": "AUC", "setting": "[2]; [7]", "result": "(~1-2 μM * hr"}, {"measurement": "Cmax", "setting": "[2]; [7]", "result": "30 to 40", "unit": "ng/mL"}, {"measurement": "T½", "setting": "[2]; [7]", "result": 60.3, "unit": "h"}, {"measurement": "AUC", "setting": "[2]; [8]", "result": "459 to 956", "unit": "ng·h/mL"}, {"measurement": "Cmax", "setting": "[2]; read-out: Cmax", "result": "60 to 80", "unit": "nM"}]}, {"compound": "C#Cc1cccc(Nc2ncnc3cc(OCCOC)c(OCCOC)cc23)c1", "note": "[Erlotinib, erlotinib]", "values": [{"measurement": "Genes, Erl-induced pathway", "setting": "GBM12 cells [3]; Axon guidance", "result": 42}, {"measurement": "Genes, Erl-induced pathway", "setting": "GBM12 cells [3]; Ectoderm Differentiation", "result": 35}, {"measurement": "Genes, Erl-induced pathway", "setting": "GBM12 cells [3]; Glutathione conjugation", "result": 14}, {"measurement": "Genes, Erl-induced pathway", "setting": "GBM12 cells [3]; NRF2 pathway", "result": 40}, {"measurement": "Genes, Erl-induced pathway", "setting": "GBM12 cells [3]; Validated targets of C-MYC transcriptional repression", "result": 23}, {"measurement": "Genes, Erl-induced pathway", "setting": "GBM12 cells [3]; Validated transcriptional targets of Tap63 isoforms", "result": 19}, {"measurement": "genes upregulated by RNAseq", "setting": "GBM12 cells [3]; erlotinib 1 μM, 24 hours, GBM 12 cells", "result": 3635}, {"measurement": "GPX3 expression in GBM", "setting": "GBM12 cells [3]; in response to erlotinib (FIG. 3)", "result": "upregulated"}, {"measurement": "ROS (Mitotracker dye)", "setting": "GBM 12 or GBM6 cells", "result": "increase in ROS"}, {"measurement": "AUC", "setting": "[1]; 12.5 mg/kg QD", "result": "27,042 ng * hr/ml"}, {"measurement": "Cmax", "setting": "[1]; 12.5 mg/kg QD", "result": "3,513 ng/mL"}, {"measurement": "T½", "setting": "[1]", "result": 3.1, "unit": "h"}, {"measurement": "cellular level of total Keap1", "setting": "Keap1", "result": "not changed"}, {"measurement": "Cmax", "setting": "[2]; [7]", "result": 872, "unit": "ng/mL"}, {"measurement": "AUC", "setting": "[2]; [8]", "result": "11,860 ng * hr/ml"}, {"measurement": "GSH/GSSG", "setting": "Mayo PDX GBM12 cells", "result": "68.5 ± 15.2"}, {"measurement": "p21 level", "setting": "p21", "result": "not upregulated"}, {"measurement": "toxicity", "setting": "[4]", "result": "without significant toxicity"}]}, {"compound": "CCc1cc(C(N)=S)ccn1", "note": "[Ethionamide, ethionamide]", "values": [{"measurement": "synergy with EGFR inhibition, cell viability assay", "setting": "glioma cells; erlotinib 1 μM and/or ethionamide 1 μM, 72 hours", "result": "synergizes with EGFR inhibition"}]}, {"compound": "NNC(=O)c1ccncc1", "note": "[INH, isoniazid]", "values": [{"measurement": "AUC", "setting": "[1]; 25 mg/kg QD for 4 wks", "result": 27.3, "unit": "mg·h/L"}, {"measurement": "Cmax", "setting": "[1]; 25 mg/kg QD for 4 wks", "result": 22, "unit": "µg/mL"}, {"measurement": "tumor growth / efficacy in orthotopic experiments", "setting": "preclinical GBM models", "result": "no effect"}, {"measurement": "AUC", "setting": "[2]; 150 mg QD for 6 months", "result": 19700, "unit": "ng·h/mL"}, {"measurement": "Cmax", "setting": "[2]; 150 mg QD for 6 months", "result": 4830, "unit": "ng/mL"}, {"measurement": "CNS penetration", "setting": "[5]", "result": "highly CNS penetrable"}, {"measurement": "sensitization of cells to erlotinib, cell viability", "setting": "GBM12 cells [6]", "result": "sensitizes"}, {"measurement": "synergy with EGFR inhibition in cell survival assays", "setting": "glioma cells", "result": "synergizes with EGFR inhibition"}]}, {"compound": "Cc1ccccc1C(=O)N1CCc2cc(-c3nc(NC(=O)Cc4ccc5c(c4)OCO5)sc3C)ccc21", "note": "[ML385]", "values": [{"measurement": "sensitization of cells to erlotinib, cell viability", "setting": "GBM12 cells [6]", "result": "sensitizes"}]}, {"compound": "O=C(O)c1cc(/N=N/c2ccc(S(=O)(=O)Nc3ccccn3)cc2)ccc1O", "note": "[sulfasalazine]", "values": [{"measurement": "AUC of SASP", "setting": "[1]; 67.5 mg/kg QD for 3 wks, analyte SASP", "result": "SASP: 21 μM * hr"}, {"measurement": "T½", "setting": "[1]", "result": 0.9, "unit": "h"}, {"measurement": "AUC", "setting": "[2]; [7]", "result": "(122 μM * hr"}, {"measurement": "Cmax", "setting": "[2]; [7]", "result": 5351, "unit": "ng/mL"}, {"measurement": "T½", "setting": "[2]; [7]", "result": 9.8, "unit": "h"}, {"measurement": "AUC", "setting": "[2]; [8]", "result": "48,500 ng * hr/ml"}, {"measurement": "sensitization of cells to erlotinib, cell viability", "setting": "GBM12 cells [6]", "result": "sensitizes"}, {"measurement": "synergy with EGFR inhibition in cell survival assays", "setting": "glioma cells", "result": "synergizes with EGFR inhibition"}]}, {"compound": "etanercept", "values": [{"measurement": "block of the 40 NRF2 target genes induced by erlotinib", "setting": "GBM12 cells [3]; [9]", "result": "could not be blocked"}, {"measurement": "upregulation of erlotinib induced genes blocked", "setting": "GBM12 cells [3]; [9]", "result": 25, "unit": "%"}]}]}
